Results as given in the NIST ThermoML archive (doi:10.1021/je0400052).

How the values were obtained:
[1] = xn = mol fraction of the nth substance listed; details: 101.3 kPa, Liquid
[2] = refractive index (Na D-line) (dimensionless); xn = mol fraction of the nth substance listed; details: 101.3 kPa, Liquid

CCOC(=O)c1ccccc1 [ethyl benzoate] + Cc1cccc(C)c1
Details	mass density, [1] [kg/m3]	refractive index, [2]	viscosity, [1] [mPa·s]
303.15 K, x1 = 0.0887	871.6	1.4946	0.612
303.15 K, x1 = 0.1713	887.2	1.4957	0.676
303.15 K, x1 = 0.2626	905.2	1.4964	0.759
303.15 K, x1 = 0.3553	926	1.497	0.837
303.15 K, x1 = 0.4588	946.8	1.4974	0.931
303.15 K, x1 = 0.5707	966.5	1.499	1.055
303.15 K, x1 = 0.6576	981.7	1.4995	1.161
303.15 K, x1 = 0.7831	1002.2	1.5003	1.352
303.15 K, x1 = 0.8832	1018.5	1.5011	1.5
313.15 K, x1 = 0.0887	857.3	1.4917	0.547
313.15 K, x1 = 0.1713	875	1.4925	0.601
313.15 K, x1 = 0.2626	895.5	1.4939	0.664
313.15 K, x1 = 0.3553	917.5	1.4955	0.732
313.15 K, x1 = 0.4588	937.2	1.4963	0.809
313.15 K, x1 = 0.5707	966.5	1.4979	0.91
313.15 K, x1 = 0.6576	971.7	1.4984	0.997
313.15 K, x1 = 0.7831	993.7	1.4988	1.146
313.15 K, x1 = 0.8832	1009.8	1.4993	1.274

CCOC(=O)c1ccccc1 [ethyl benzoate] + Cc1ccccc1C
Details	mass density, [1] [kg/m3]	refractive index, [2]	viscosity, [1] [mPa·s]
303.15 K, x1 = 0.0847	887.3	1.4994	0.758
303.15 K, x1 = 0.1749	904.2	1.4996	0.837
303.15 K, x1 = 0.2686	920.9	1.4999	0.909
303.15 K, x1 = 0.3579	937.5	1.5001	1
303.15 K, x1 = 0.4613	954	1.5007	1.085
303.15 K, x1 = 0.56	972.3	1.5009	1.19
303.15 K, x1 = 0.6668	988.1	1.501	1.312
303.15 K, x1 = 0.7675	1001.3	1.5011	1.433
303.15 K, x1 = 0.8768	1021.1	1.5013	1.566
313.15 K, x1 = 0.0847	879.3	1.4983	0.676
313.15 K, x1 = 0.1749	896.1	1.4986	0.732
313.15 K, x1 = 0.2686	913.1	1.4989	0.8
313.15 K, x1 = 0.3579	930.2	1.4993	0.864
313.15 K, x1 = 0.4613	945.7	1.4995	0.937
313.15 K, x1 = 0.56	963.8	1.4997	1.015
313.15 K, x1 = 0.6668	980.8	1.4999	1.113
313.15 K, x1 = 0.7675	992.7	1.5001	1.208
313.15 K, x1 = 0.8768	1010.9	1.5003	1.31
